Data: PMC6934184, “Selective DNA-PKcs inhibition extends the therapeutic index of localized radiotherapy and chemotherapy” (The Journal of Clinical Investigation, 2019)

Molecular target: T1, HIPK1 (Myak) (Homo sapiens, UniProt Q86Z02)
T1 construct: purchased Thermo Fisher Scientific (Life Technologies) SelectScreen
Assay: SelectScreen Z'LYTE
Assay type: biochemical
Procedure, shortened: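 SelectScreen broad panel; activity (Z'LYTE, Adapta) plus binding formats. ATP: Km app for CSF1R Z'LYTE; 10 for CAMK1 Adapta. Readout = % per kinase.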

T1 sequence (Q86Z02 whole entry): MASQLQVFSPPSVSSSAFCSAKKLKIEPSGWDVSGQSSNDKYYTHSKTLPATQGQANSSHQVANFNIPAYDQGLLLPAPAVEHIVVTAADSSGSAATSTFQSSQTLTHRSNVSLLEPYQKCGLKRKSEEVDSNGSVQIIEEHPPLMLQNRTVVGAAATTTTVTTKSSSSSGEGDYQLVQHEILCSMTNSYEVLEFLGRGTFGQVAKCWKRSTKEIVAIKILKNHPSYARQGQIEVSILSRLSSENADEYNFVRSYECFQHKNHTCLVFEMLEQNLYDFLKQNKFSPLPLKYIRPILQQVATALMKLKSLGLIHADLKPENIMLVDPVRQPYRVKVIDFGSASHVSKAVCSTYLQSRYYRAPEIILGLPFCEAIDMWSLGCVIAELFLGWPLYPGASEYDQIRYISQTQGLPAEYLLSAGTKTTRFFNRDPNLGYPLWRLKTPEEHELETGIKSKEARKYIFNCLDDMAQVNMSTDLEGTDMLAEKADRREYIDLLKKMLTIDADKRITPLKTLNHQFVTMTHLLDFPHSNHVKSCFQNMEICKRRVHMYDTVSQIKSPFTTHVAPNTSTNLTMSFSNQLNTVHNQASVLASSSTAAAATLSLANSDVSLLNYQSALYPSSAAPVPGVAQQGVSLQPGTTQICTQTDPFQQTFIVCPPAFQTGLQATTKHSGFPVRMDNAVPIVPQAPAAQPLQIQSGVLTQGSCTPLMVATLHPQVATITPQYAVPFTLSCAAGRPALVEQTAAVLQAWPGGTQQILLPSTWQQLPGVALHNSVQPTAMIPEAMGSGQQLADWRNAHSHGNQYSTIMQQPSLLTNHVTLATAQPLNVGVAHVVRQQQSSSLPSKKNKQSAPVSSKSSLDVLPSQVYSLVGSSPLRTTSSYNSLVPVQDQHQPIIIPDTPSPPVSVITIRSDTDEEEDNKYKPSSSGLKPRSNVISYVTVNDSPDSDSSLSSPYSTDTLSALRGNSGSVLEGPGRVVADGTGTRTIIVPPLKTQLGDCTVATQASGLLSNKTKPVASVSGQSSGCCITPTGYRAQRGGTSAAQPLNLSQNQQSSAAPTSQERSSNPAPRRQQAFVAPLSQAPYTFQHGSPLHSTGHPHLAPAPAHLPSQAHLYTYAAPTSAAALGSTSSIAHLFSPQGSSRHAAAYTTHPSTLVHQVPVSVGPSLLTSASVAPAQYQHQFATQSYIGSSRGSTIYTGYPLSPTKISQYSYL

**Q.** `CN(C(=O)CN1CCOCC1)c1ccc2sc3c(-c4cccc5c(=O)cc(N6CC7CCC(C6)O7)oc45)cccc3c2c1` [NU5455] was tested. Which inhibition at 1 µM did it give?
**A.** 2.8%
